Bounds are passed on as bounds.

In the first experiment the target is PIKFYVE (Homo sapiens (Human), UniProt Q9Y2I7). As to the kind of experiment: KINOMEScan Kinase Assay, PIKFYVE binding.
Sequence of PIKFYVE (Q9Y2I7 whole entry): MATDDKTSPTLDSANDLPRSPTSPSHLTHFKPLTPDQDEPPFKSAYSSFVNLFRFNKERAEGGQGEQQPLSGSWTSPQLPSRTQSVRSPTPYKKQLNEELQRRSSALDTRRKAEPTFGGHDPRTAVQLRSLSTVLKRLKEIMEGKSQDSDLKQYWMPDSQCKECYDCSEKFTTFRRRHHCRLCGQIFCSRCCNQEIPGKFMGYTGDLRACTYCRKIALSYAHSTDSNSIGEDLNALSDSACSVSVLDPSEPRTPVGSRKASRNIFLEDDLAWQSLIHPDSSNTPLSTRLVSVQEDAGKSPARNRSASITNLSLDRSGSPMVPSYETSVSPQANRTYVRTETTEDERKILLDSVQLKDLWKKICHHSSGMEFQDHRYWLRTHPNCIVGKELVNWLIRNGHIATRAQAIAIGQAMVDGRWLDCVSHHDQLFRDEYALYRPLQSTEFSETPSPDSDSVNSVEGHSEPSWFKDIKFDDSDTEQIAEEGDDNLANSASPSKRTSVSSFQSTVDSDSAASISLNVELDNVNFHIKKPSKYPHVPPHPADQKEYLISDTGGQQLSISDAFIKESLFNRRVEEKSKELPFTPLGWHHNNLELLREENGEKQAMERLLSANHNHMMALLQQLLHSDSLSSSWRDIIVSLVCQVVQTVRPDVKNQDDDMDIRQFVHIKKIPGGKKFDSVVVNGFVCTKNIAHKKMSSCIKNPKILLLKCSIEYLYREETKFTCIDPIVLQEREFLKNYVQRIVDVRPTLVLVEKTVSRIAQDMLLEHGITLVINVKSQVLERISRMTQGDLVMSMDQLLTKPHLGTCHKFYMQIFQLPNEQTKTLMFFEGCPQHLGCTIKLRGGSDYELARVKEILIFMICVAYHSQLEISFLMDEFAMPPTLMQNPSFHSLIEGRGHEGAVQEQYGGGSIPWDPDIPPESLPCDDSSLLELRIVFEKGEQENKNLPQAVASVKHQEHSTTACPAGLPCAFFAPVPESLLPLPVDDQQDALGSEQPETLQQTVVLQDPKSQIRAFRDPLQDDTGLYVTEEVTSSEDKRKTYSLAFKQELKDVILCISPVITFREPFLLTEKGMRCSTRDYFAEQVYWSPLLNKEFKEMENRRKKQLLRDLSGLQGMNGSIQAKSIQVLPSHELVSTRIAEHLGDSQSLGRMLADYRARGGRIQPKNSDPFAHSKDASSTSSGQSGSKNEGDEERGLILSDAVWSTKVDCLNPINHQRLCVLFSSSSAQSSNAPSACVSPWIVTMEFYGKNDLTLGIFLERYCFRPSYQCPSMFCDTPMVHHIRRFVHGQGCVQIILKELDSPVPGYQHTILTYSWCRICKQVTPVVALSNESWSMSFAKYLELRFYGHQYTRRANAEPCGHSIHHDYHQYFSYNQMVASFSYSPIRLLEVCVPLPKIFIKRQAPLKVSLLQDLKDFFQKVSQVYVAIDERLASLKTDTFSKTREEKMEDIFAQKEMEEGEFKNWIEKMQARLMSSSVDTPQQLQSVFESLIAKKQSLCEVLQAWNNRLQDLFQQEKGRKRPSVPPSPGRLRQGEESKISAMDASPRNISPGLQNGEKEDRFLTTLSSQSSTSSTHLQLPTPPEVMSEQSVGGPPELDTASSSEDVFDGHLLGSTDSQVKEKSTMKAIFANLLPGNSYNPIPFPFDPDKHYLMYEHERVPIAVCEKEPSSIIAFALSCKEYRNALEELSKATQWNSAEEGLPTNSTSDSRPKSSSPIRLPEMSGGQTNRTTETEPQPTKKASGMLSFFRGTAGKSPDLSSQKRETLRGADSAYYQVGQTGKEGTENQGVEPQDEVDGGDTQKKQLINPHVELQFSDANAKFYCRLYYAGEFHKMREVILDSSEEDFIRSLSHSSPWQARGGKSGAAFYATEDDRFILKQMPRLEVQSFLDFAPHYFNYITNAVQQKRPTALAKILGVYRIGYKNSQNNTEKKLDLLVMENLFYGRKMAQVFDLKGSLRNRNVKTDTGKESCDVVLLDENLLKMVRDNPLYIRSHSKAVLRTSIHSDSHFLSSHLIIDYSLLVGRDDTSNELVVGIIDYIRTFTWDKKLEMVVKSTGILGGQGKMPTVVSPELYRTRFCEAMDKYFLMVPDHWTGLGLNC
Conditions: not given
`Cc1cccc(-c2ccn(-c3cc(N4CCOCC4)n4nc(Br)cc4n3)n2)c1` [Ex. 24, 4-(2-bromo-5-(3-(m-tolyl)-1H-pyrazol-1-yl)pyrazolo[1,5-a]pyrimidin-7-yl)morpholine]: the dissociation constant Kd (in general, the free concentration of one partner at which half of the binding sites on the other are occupied at equilibrium, for simple one-to-one binding) was in the range of 1 to 5 nM.

Take `[O-][n+]1ccc(-c2cc3nc(-n4ccc(-c5cccc(Br)c5)n4)cc(N4CCOCC4)n3n2)cc1` [Ex. 18, 4-(5-(3-(3-bromophenyl)-1H-pyrazol-1-yl)-7-morpholinopyrazolo[1,5-a]pyrimidin-2-yl)pyridine 1-oxide]: the dissociation constant Kd was less than 1 nM.

For the molecule `Cc1cccc(-c2ccn(-c3cc(N4CCOCC4)n4nc(C5=CCNCC5)cc4n3)n2)c1` [Ex. 28, 4-(2-(1,2,3,6-tetrahydropyridin-4-yl)-5-(3-(m-tolyl)-1H-pyrazol-1-yl)pyrazolo[1,5-a]pyrimidin-7-yl)morpholine], the Kd was 1 to 5 nM.

As to `Cc1cccc(-c2ccn(-c3cc(N4CCOCC4)n4nc(-c5ccnnc5)cc4n3)n2)c1` [Ex. 25, 4-(2-(pyridazin-4-yl)-5-(3-(m-tolyl)-1H-pyrazol-1-yl)pyrazolo[1,5-a]pyrimidin-7-yl)morpholine], the Kd is less than 1 nM.

Still in this experiment, the particulars now being: KINOMEScan Kinase Assay.
Take `COc1cccc(-c2ccn(-c3cc(N4CCOCC4)n4nc(-c5ccncc5)cc4n3)n2)c1` [Ex. 15]: the Kd was in the range of 1 to 5 nM.

`Cc1cccc(-c2ccn(-c3cc(N4CCOCC4)n4nc(-c5ccncc5)cc4n3)n2)c1` [Ex. 17]: the dissociation constant Kd was less than 1 nM.

`COc1cccc(-c2ccn(-c3cc(N4CCO[C@H](C)C4)n4nc(-c5ccncc5)cc4n3)n2)c1` [Ex. 11] gave a Kd of 5 to 10 nM.

Consider `COc1cccc(-c2ccn(-c3cc(N4CCOC[C@H]4C)n4nc(-c5ccncc5)cc4n3)n2)c1` [Ex. 14], for which the Kd lay in the range of 5 to 10 nM.

Staying with this experiment, now noted: KINOMEScan Kinase Assay; 50 nM compound.
Take `Cc1cccc(-c2ccn(-c3cc(N4CCOCC4)n4nc(C5=CC[N+](C)(C)CC5)cc4n3)n2)c1` [Ex. 29, 1,1-dimethyl-4-(7-morpholino-5-(3-(m-tolyl)-1H-pyrazol-1-yl)pyrazolo[1,5-a]pyrimidin-2-yl)-1,2,3,6-tetrahydropyridin-1-ium]: the “% Inhib. (50 nM)” value is on record as “+++ (>80%-100%)”.

Take `COc1cccc(-c2ccn(-c3cc(N4CCO[C@@H](C)C4)n4nc(-c5ccncc5)cc4n3)n2)c1` [Ex. 12]: the “% Inhib. (50 nM)” value is on record as “+++ (>80%-100%)”.

Regarding “4-(2-(pyridin-4-yl)-5-(3-(3-(trifluoromethyl)phenyl)-1H-pyrazol-1-yl)pyrazolo[1,5-a]pyrimidin-7-yl)morpholine [Ex. 21]”, the “% Inhib. (50 nM)” value is recorded as “++ (>50%-80%)”.

With `COc1cccc(-c2ccn(-c3cc(N4CCOC[C@@H]4C)n4nc(-c5ccncc5)cc4n3)n2)c1` [Ex. 13], the “% Inhib. (50 nM)” value is listed as “+++ (>80%-100%)”.

The same experiment, now with this note: read-out: % Inhib. (50 nM).
Consider `FC(F)(F)Oc1cccc(-c2ccn(-c3cc(N4CCOCC4)n4nc(-c5ccncc5)cc4n3)n2)c1` [Ex. 22, 4-(2-(pyridin-4-yl)-5-(3-(3-(trifluoromethoxy)phenyl)-1H-pyrazol-1-yl)pyrazolo[1,5-a]pyrimidin-7-yl)morpholine], for which the inhibition at 0.05 µM is less than 50%.

As to `C=Cc1cc2nc(-n3ccc(-c4cccc(C)c4)n3)cc(N3CCOCC3)n2n1` [Ex. 27, 4-(5-(3-(m-tolyl)-1H-pyrazol-1-yl)-2-vinylpyrazolo[1,5-a]pyrimidin-7-yl)morpholine], the inhibition at 0.05 µM fell in the range of 80 to 100%.

In the case of `CCOc1cccc(-c2ccn(-c3cc(N4CCOCC4)n4nc(-c5ccncc5)cc4n3)n2)c1` [Ex. 23, 4-(5-(3-(3-ethoxyphenyl)-1H-pyrazol-1-yl)-2-(pyridin-4-yl)pyrazolo[1,5-a]pyrimidin-7-yl)morpholine], the inhibition at 0.05 µM is less than 50%.

`Cc1cccc(-c2ccn(-c3cc(N4CCOCC4)n4nc(C5=CCN(C(=O)OC(C)(C)C)CC5)cc4n3)n2)c1` [Ex. 26, tert-butyl4-(7-morpholino-5-(3-(m-tolyl)-1H-pyrazol-1-yl)pyrazolo[1,5-a]pyrimidin-2-yl)-3,6-dihydropyridine-1(2H)-carboxylate]: the inhibition at 0.05 µM lay within 80 to 100%.

(Values after US20240018151A1, “NOVEL INHIBITORS OF PIKFYVE AND METHODS USING SAME” (priority 2020, published 2024).)
